Laboratory results from patent US7943629B2, “Sulphimides as protein kinase inhibitors” (Bayer Schering Pharma AG, priority 2006, dated 2011).

Assays:
[1] = molecular target: T1, CDK2/CycE (Homo sapiens, UniProt P24941); experiment: CDK2/CycE kinase assay; format: biochemical; details: 0.5 μM ATP, histone IIIS, 22° C., 10 min
T1 construct: GST; purchased ProQinase GmbH, Freiburg; host or cells: baculovirus-infected insect cells (Sf9)
Description: Recombinant CDK2- and CycE-GST fusion proteins, purified from baculovirus-infected insect cells (Sf9), were purchased from ProQinase GmbH, Freiburg. The histone IIIS used as kinase substrate was purchased from Sigma.
(§1) CDK2/CycE (50 ng/measurement point) was incubated in the presence of various concentrations of test substances (0 μM, and within the range 0.01-100 μM) in assay buffer [50 mM Tris/HCl pH 8.0, 10 mM MgCl2, 0.1 mM Na ortho-vanadate, 1.0 mM dithiothreitol, 0.5 μM ATP, 10 μg/measurement point histone IIIS, 0.2 μCi/measurement point ^33P-gamma-ATP, 0.05% NP40, 1.25% dimethyl sulphoxide] at 22° C. for 10 min. The reaction was stopped by adding EDTA solution (250 mM, pH 8.0, 15 μl/measurement point).
15 μl of each reaction mixture were loaded onto P30 filter strips (from Wallac), and non-incorporated ^33P-ATP was removed by washing the filter strips three times in 0.5% strength phosphoric acid for 10 min each time.
(§2) After the filter strips had been dried at 70° C. for 1 hour, the filter strips were covered with scintillator strips (MeltiLex™ A, from Wallac) and baked at 90° C. for 1 hour. The amount of incorporated ^33P (substrate phosphorylation) was determined by scintillation measurement in a gamma radiation counter (Wallac).

[2] = tested on: MCF7 breast tumour cells; experiment: MCF7 proliferation assay; format: cell-based, human; details: for IC50: Homo sapiens, MCF7, 96 h, 4 days incubation, crystal violet staining; for antiproliferative activity, MCF7 (in words): summary of Tab. 2
Description: Cultivated human MCF7 breast tumour cells (ATCC HTB-22) were plated out in a density of 5000 cells/measurement point in 200 μl of growth medium (RPMI1640, 10% foetal calf serum, 2 mU/mL insulin, 0.1 nM oestradiol) in a 96-well multititre plate. After 24 hours, the cells from a plate (zero plate) were stained with crystal violet (see below), while the medium in the other plates was replaced by fresh culture medium (200 μl) to which the test substances had been added in various concentrations (0 μM, and in the range 0.1-30 μM; the final concentration of the solvent dimethyl sulphoxide was 0.5%). The cells were incubated in the presence of the test substances for 4 days. The cell proliferation was determined by staining the cells with crystal violet: the cells were fixed by adding 20 μl/measurement point of an 11% strength glutaraldehyde solution at room temperature for 15 min. After the fixed cells had been washed three times with water, the plates were dried at room temperature. The cells were stained by adding 100 μl/measurement point of a 0.1% strength crystal violet solution (pH adjusted to pH 3 by adding acetic acid). After the stained cells had been washed three times with water, the plates were dried at room temperature. The dye was dissolved by adding 100 μl/measurement point of a 10% strength acetic acid solution, and the extinction was determined by photometry at a wavelength of 595 nm. The percentage change in cell growth was calculated by normalizing the measurements to the extinctions of the zero point plate (=0%) and the extinction of the untreated (0 μM) cells (=100%). The IC50 values were determined by means of a 4-parameter fit using the company's own software.

[3] = molecular target: T2, KDR (VEGFR2) (Homo sapiens, UniProt P35968); experiment: KDR kinase assay; format: biochemical; details: 10 μM ATP, 22° C., 45 min, HTRF
T2 construct: made in house; host or cells: E. coli
Description: Recombinant KDR protein was expressed in E. coli and then purified. The kinase substrate used was the biotinylated peptide having the amino acid sequence biotin-DFGLARDMYDKEYYSVG, which was purchased from Biosynthan. KDR [test volume 5 μl] was incubated in the presence of various concentrations of test substances (0 μM, and 10 measurement points within the range 0.001-20 μM in duplicate) in assay buffer [50 mM HEPES pH 7.0, 25.0 mM MgCl2, […], 0.1 mM Na ortho-vanadate, 1.0 mM dithiothreitol, 0.001% NP40, 10 μM ATP, 0.03 μM substrate peptide […], 1.0% dimethyl sulphoxide] at 22° C. for 45 min. The reaction was stopped by adding 5 μl of an EDTA/detection solution [50 mM HEPES pH 7.5, 125 mM EDTA, 0.2% BSA, 0.1 μM streptavidin-XLent (from CisBio), 2 nM PT66-Eu (from PerkinElmer)]. The fluorescence emission at 620 nm and 665 nm after excitation with light of the wavelength 350 nm was measured in a Rubystar HTRF instrument from BMG Labsystems.
The measured data (ratio of emission 665 divided by emission 620 multiplied by 10 000) were normalized to 0% inhibition (enzyme reaction without inhibitor) and 100% inhibition (all assay components apart from enzyme). The IC50 values were determined by means of a 4-parameter fit using the company's own software.

[4] = molecular target: T3, Aurora-C (Homo sapiens, UniProt Q9UQB9); experiment: Aurora-C kinase assay; format: biochemical; details: for IC50: 3 μM ATP, 22° C., 90 min; for inhibition of Aurora C kinase (in words): summary of Tab. 1
T3 construct: made in house; host or cells: transiently transfected HEK293 cells
T3 sequence (Q9UQB9 1-309): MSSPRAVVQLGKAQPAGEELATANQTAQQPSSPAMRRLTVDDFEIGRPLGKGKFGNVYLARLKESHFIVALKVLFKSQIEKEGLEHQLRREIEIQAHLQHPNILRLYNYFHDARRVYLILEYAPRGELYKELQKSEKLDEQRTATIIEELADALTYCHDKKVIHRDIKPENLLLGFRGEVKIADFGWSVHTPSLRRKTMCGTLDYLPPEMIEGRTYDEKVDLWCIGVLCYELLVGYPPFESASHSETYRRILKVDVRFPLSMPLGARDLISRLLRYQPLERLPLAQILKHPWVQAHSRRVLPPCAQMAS
Description: Recombinant Aurora-C protein was expressed in transiently transfected HEK293 cells and then purified. The kinase substrate used was the biotinylated peptide having the amino acid sequence biotin-FMRLRRLSTKYRT, which was purchased from Jerini AG in Berlin.
Aurora-C [5 nM in the test mixture, test volume 5 μl] was incubated in the presence of various concentrations of test substances (0 μM and 10 measurement points within the range 0.001-20 μM in duplicate) in assay buffer [25 mM HEPES pH 7.4, 0.5 mM MnCl2, 0.1 mM Na ortho-vanadate, 2.0 mM dithiothreitol, 0.05% bovine serum albumin (BSA), 0.01% Triton X-100, 3 μM adenosine trisphosphate (ATP), 0.67 nCi/μl gamma-^33P-ATP, 2.0 μM substrate peptide biotin-FMRLRRLSTKYRT, 1.0% dimethyl sulphoxide] at 22° C. for 90 min. The reaction was stopped by adding 12.5 μl of an EDTA/detection solution [16 mM EDTA, 40 mM ATP, 0.08% Triton X-100, 4 mg/ml PVT streptavidin SPA beads (from Amersham)]. After incubation for 10 minutes, the SPA beads were pelleted by centrifugation at 1000×G for 10 minutes. Measurement took place in a PerkinElmer Topcount scintillation counter. The measured data were normalized to 0% inhibition (enzyme reaction without inhibitor) and 100% inhibition (enzyme reaction in the presence of 0.1 μM staurosporine (from Sigma)). The IC50 values were determined by means of a 4-parameter fit using the company's own software.

[5] = molecular target: T4, CDK1/CycB (Homo sapiens, UniProt P06493); experiment: CDK1/CycB kinase assay; format: biochemical; details: 0.5 μM ATP, histone IIIS, 22° C., 10 min
T4 construct: GST; purchased ProQinase GmbH, Freiburg; host or cells: baculovirus-infected insect cells (Sf9)
Description: as §1, with “Recombinant CDK1- and CycB-GST fusion proteins, purified from baculovirus-infected insect cells (Sf9), were purchased from ProQinase GmbH, Freiburg. The histone IIIS used as kinase substrate can be purchased from Sigma. CDK1/CycB (200” for “CDK2/CycE (50”
as §2, with “15 μl of each reaction mixture were loaded onto P30 filter strips (from Wallac), and non-incorporated ^33P-ATP was removed by washing the filter strips three times in 0.5% strength phosphoric acid for 10 min each time. After” for “After”

T4 sequence (P06493 whole entry): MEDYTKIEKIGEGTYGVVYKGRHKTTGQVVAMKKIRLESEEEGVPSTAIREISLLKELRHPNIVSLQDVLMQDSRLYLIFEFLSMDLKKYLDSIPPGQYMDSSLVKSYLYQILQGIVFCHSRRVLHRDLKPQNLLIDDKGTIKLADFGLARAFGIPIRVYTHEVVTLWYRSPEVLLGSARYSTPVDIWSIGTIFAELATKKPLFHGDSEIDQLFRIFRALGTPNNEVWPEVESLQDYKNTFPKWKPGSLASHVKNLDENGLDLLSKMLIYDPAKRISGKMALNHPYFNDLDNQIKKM
T4 sequence (P14635 whole entry partner): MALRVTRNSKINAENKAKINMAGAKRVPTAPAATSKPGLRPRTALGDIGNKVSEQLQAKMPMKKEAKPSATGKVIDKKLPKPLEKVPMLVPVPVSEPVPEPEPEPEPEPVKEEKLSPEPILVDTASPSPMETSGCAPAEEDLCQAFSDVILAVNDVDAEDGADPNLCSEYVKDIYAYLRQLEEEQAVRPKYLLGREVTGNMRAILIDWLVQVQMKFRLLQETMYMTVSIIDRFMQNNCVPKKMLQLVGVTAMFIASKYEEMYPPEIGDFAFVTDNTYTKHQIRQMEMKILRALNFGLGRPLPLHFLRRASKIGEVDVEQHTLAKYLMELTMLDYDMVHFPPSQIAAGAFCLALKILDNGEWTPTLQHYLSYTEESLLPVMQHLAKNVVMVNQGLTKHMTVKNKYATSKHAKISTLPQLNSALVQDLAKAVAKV
T2 sequence (P35968 20-1356, species assumed): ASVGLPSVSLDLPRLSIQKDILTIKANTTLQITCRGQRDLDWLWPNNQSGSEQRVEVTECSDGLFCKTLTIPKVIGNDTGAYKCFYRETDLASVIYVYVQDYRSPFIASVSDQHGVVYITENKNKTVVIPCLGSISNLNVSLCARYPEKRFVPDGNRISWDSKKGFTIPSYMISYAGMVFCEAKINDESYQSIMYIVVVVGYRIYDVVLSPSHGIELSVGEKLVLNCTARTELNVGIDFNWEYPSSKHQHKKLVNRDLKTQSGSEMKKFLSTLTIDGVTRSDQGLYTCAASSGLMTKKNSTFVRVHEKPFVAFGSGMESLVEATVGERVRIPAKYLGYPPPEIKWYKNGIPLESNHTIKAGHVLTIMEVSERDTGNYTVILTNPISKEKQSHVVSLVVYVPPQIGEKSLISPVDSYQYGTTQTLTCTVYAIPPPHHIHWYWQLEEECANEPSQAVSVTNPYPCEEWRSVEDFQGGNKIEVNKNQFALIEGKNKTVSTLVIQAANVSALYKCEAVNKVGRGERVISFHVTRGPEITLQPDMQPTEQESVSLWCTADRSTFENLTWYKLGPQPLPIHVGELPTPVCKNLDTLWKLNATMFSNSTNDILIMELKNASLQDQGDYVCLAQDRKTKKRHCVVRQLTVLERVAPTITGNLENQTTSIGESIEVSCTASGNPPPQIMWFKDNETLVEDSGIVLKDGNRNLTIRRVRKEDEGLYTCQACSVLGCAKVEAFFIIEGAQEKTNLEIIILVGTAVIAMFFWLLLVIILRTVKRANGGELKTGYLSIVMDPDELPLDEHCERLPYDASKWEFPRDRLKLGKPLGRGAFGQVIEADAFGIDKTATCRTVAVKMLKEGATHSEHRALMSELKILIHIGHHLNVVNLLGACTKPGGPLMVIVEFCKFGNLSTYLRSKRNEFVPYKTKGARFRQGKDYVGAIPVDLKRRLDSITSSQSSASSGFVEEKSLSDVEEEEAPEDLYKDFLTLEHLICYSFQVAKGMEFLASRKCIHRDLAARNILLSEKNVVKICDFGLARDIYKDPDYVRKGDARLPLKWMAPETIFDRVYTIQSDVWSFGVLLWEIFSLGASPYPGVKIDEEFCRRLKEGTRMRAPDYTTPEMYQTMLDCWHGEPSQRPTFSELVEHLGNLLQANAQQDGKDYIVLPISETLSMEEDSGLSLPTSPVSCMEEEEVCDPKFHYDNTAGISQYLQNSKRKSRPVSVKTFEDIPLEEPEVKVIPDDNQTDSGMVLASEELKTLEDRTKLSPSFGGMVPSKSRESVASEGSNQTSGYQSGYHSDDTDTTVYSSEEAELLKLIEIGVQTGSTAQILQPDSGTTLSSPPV

| SMILES | IC50 [1] | IC50 [2] | IC50 [3] | IC50 [4] | inhibition of Aurora C kinase (in words) [4] | IC50 [5] | antiproliferative activity, MCF7 (in words) [2] |
| --- | --- | --- | --- | --- | --- | --- | --- |
| Cc1ccc(S(=O)(=O)N=S(C)c2ccc(Nc3ncc(Br)c(N[C@H](C)CO)n3)cc2)cc1 (mixture of isomers) [Example 8, (RS)—S-{4-[(5-Bromo-4-{[(R)-2-hydroxy-1-methylethyl]amino}pyrimidin-2-yl)-amino]phenyl}-S-methyl-N-(tolylsulphonyl)sulphimide] | 99 nM | 900 nM | 22 nM | 360 nM | inhibits | 620 nM |  |
| Cc1ccc(S(=O)(=O)N=S(C)c2ccc(Nc3ncc(Br)c(N[C@H](C)C(C)(C)O)n3)cc2)nc1 (mixture of isomers) [Example 10, (RS)—S-{4-[(5-Bromo-4-{[(R)-2-hydroxy-1,2-dimethylpropyl]amino}pyrimidin-2-yl)amino]phenyl}-S-methyl-N-[(5-methyl-2-pyridyl)sulphonyl]sulphimide] |  |  |  |  |  |  | excellent antiproliferative activity |
| C[C@@H](Nc1nc(Nc2ccc(S(C)=NS(=O)(=O)c3ccc(Cl)s3)cc2)ncc1Br)C(C)(C)O (mixture of isomers) [Example 17, (RS)—S-{4-[(5-Bromo-4-{[(R)-2-hydroxy-1,2-dimethylpropyl]amino}pyrimidin-2-yl)amino]phenyl}-N-[(5-chloro-2-thienyl)sulphonyl]-S-methylsulphimide] |  |  |  |  |  |  | excellent antiproliferative activity |
| Cc1ccc(S(=O)(=O)N=S(C)c2cccc(Nc3ncc(Br)c(NC(C)C)n3)c2)cc1 (racemic) [Example 2, (RS)—S-(3-{[5-Bromo-4-(isopropylamino)pyrimidin-2-yl]amino}phenyl)-S-methyl-N-(tolylsulphonyl)sulphimide] | > 1000 nM |  | 200 nM |  |  | > 1000 nM |  |
| Cc1ccc(S(=O)(=O)N=S(C)c2ccc(Nc3ncc(Br)c(NC4CC4)n3)cc2)cc1 (racemic) [Example 3, (RS)—S-(4-{[5-Bromo-4-(cyclopropylamino)pyrimidin-2-yl]amino}phenyl)-S-methyl-N-(tolylsulphonyl)sulphimide] |  | 340 nM | 13 nM | 90 nM | inhibits | > 1000 nM |  |
| Cc1ccc(S(=O)(=O)N=S(C)c2cccc(Nc3ncc(Br)c(NC4CC4)n3)c2)cc1 (racemic) [Example 4, (RS)—S-(3-{[5-Bromo-4-(cyclopropylamino)pyrimidin-2-yl]amino}phenyl)-S-methyl-N-(tolylsulphonyl)sulphimide] | > 1000 nM |  | 170 nM |  |  | > 1000 nM |  |
| Cc1ccc(S(=O)(=O)N=S(C)c2ccc(Nc3nccc(NC(C)C)n3)cc2)cc1 (racemic) [Example 5, (RS)—S-(4-{[4-(Isopropylamino)pyrimidin-2-yl]amino}phenyl)-S-methyl-N-(tolylsulphonyl)sulphimide] | > 1000 nM |  | 760 nM | 4600 nM |  | > 1000 nM |  |
| Cc1ccc(S(=O)(=O)N=S(C)c2ccc(Nc3ncc(Br)c(Nc4ccccc4)n3)cc2)cc1 (racemic) [Example 6, (RS)—S-{4-[(4-Anilino-5-bromopyrimidin-2-yl)amino]phenyl}-S-methyl-N-(tolylsulphonyl)sulphimide] | > 1000 nM |  | 120 nM |  |  | > 1000 nM |  |
| Cc1ccc(S(=O)(=O)N=S(C)c2ccc(Nc3ncc(Br)c(NCCO)n3)cc2)cc1 (racemic) [Example 7, (RS)—S-[4-({5-Bromo-4-[(2-hydroxyethyl)amino]pyrimidin-2-yl}amino)phenyl]-S-methyl-N-(tolylsulphonyl)sulphimide] | > 1000 nM |  | 43 nM | 680 nM |  | > 1000 nM |  |
| CC(=O)NCCNc1nc(Nc2ccc(S(C)=NS(=O)(=O)c3ccc(C)cc3)cc2)ncc1Br (racemic) [Example 23, (RS)—S-{4-[(4-{[2-(Acetylamino)ethyl]amino}-5-bromopyrimidin-2-yl)amino]-phenyl}-S-methyl-N-(tolylsulphonyl)sulphimide] |  | 2200 nM | 35 nM | 36 nM |  | 990 nM |  |
